In ChEMBL document CHEMBL2331238, “Xanthoquinodins from the endolichenic fungal strain Chaetomium elatum” (J Nat Prod, 2013):

What was measured:
Format in all cases: functional, cell-based
SW480 = test: Cytotoxicity against human SW480 assessed as cell viability measured after 48 hrs by MTT assay; settings: SW480, 48 h
MCF7 = test: Cytotoxicity against human MCF7 assessed as cell viability measured after 48 hrs by MTT assay; settings: MCF7, 48 h
A549 = test: Cytotoxicity against human A549 assessed as cell viability measured after 48 hrs by MTT assay; settings: A549, 48 h
HL-60 = test: Cytotoxicity against human HL60 cells assessed as cell viability measured after 48 hrs by MTT assay; settings: HL-60, 48 h
SMMC-7721 = test: Cytotoxicity against human SMMC7721 assessed as cell viability measured after 48 hrs by MTT assay; settings: SMMC-7721, 48 h

Structure (SMILES) | IC50 (SW480) [µM] | IC50 (MCF7) [µM] | IC50 (A549) [µM] | IC50 (HL-60) [µM] | IC50 (SMMC-7721) [µM]
CC(=O)O[C@H]1C(=O)[C@@]2(C)[C@H]([C@H](OC(=O)c3ccccc3)[C@]3(O)C[C@H](OC(=O)[C@H](O)[C@@H](NC(=O)c4ccccc4)c4ccccc4)C(C)=C1C3(C)C)[C@]1(OC(C)=O)CO[C@@H]1C[C@@H]2O [PACLITAXEL] | < 0.008 | < 0.008 | < 0.008 | < 0.008 | < 0.008
COC(=O)[C@@]12Oc3cc4c(c(O)c3C(=O)C1=C(O)CC[C@@H]2O)[C@@H]1C=C[C@@]2(C4)C(=O)c3cc(C)cc(O)c3C(O)=C2C1=O [XANTHOQUINODIN A1] | 28.8 | 14.2 | 3.33 | 6.22 | 8
COC(=O)[C@]12Oc3cc4c(c(O)c3C(=O)C1=C(O)CC[C@@H]2O)[C@@H]1C=C[C@@]2(C4)C(=O)c3cc(C)cc(O)c3C(O)=C2C1=O [XANTHOQUINODIN A2] | > 40 | 20.8 | 4.04 | 5.5 | 6.77
COC(=O)[C@]1([C@@H]2CCC(=O)O2)CC(=O)c2c(cc3c(c2O)[C@@H]2C=C[C@@]4(C3)C(=O)c3cc(C)cc(O)c3C(O)=C4C2=O)O1 [XANTHOQUINODIN A3] | 15.5 | 7.47 | 15.3 | 4.18 | 16.7
COC(=O)[C@]1([C@@H]2CCC(=O)O2)CC(=O)c2c(cc3c(c2O)[C@@H]2C=C[C@]4(C3)C(=C(O)c3c(O)cc(C)cc3[C@@H]4O)C2=O)O1 [XANTHOQUINODIN A4] | 18.9 | 31.2 | 25.5 | > 40 | 19.2
COC(=O)CC[C@H](O)[C@@]1(C(=O)OC)CC(=O)c2c(cc3c(c2O)[C@@H]2C=C[C@]4(C3)C(=C(O)c3c(O)cc(C)cc3[C@@H]4O)C2=O)O1 [XANTHOQUINODIN A5] | 16.2 | 24 | 18.6 | 26.6 | 16.8
COC(=O)[C@]12Oc3cc4c(c(O)c3C(=O)C1=C(O)CC[C@@H]2O)[C@@H]1C=C[C@]2(C4)C(=C(O)c3c(O)cc(C)cc3[C@@H]2O)C1=O [XANTHOQUINODIN A6] | 6.44 | 5.64 | 2.04 | 3.75 | 2.87
COC(=O)[C@]12Oc3c(c(O)cc4c3[C@@H]3C=C[C@]5(C4)C(=C(O)c4c(O)cc(C)cc4[C@@H]5O)C3=O)C(=O)C1=C(O)CC[C@@H]2O [XANTHOQUINODIN B4] | > 40 | 30 | 25.1 | 3.01 | 27.7
COC(=O)[C@@]12Oc3c(c(O)cc4c3[C@@H]3C=C[C@]5(C4)C(=C(O)c4c(O)cc(C)cc4[C@@H]5O)C3=O)C(=O)C1=C(O)CC[C@@H]2O [XANTHOQUINODIN B5] | > 40 | 38.2 | 11.4 | 4.74 | 15
